{"source": "PubChem BioAssay AID200", "about": "(DTP/NCI, 2004)", "test_system": "B6C3F1 mice, B16 melanoma ip, median survival T/C", "test": "NCI In Vivo Anticancer Drug Screen. Data for tumor model B16 Melanoma (intraperitoneal) in B6C3F1 mice", "conditions": "endpoint: median survival time, higher = longer survival", "outline": "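Transplantable tumor in mice; treated vs vehicle control groups; survival or tumor size measured; value = T/C ratio.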", "key": {"[1]": {"conditions": "dose: 1.56 mg/kg/injection, schedule: Q01DX009 (ip), vehicle: saline with Tween-80"}, "[2]": {"conditions": "dose: 3.12 mg/kg/injection, schedule: Q01DX009 (ip), vehicle: saline with Tween-80"}, "[3]": {"conditions": "dose: 6.25 mg/kg/injection, schedule: Q01DX009 (ip), vehicle: saline with Tween-80"}, "[4]": {"conditions": "dose: 12.5 mg/kg/injection, schedule: Q01DX009 (ip), vehicle: saline with Tween-80"}, "[5]": {"conditions": "dose: 25.0 mg/kg/injection, schedule: Q01DX009 (ip), vehicle: saline with Tween-80"}, "[6]": {"conditions": "dose: 50.0 mg/kg/injection, schedule: Q01DX009 (ip), vehicle: saline with Tween-80"}, "[7]": {"conditions": "dose: 100.0 mg/kg/injection, schedule: Q01DX009 (ip), vehicle: saline with Tween-80"}, "[8]": {"conditions": "dose: 200.0 mg/kg/injection, schedule: Q01DX009 (ip), vehicle: saline with Tween-80"}, "[9]": {"conditions": "dose: 100.0 mg/kg/injection, schedule: Q01DX009 (ip), vehicle: Klucel (hydroxypropylcellulose) (HPC)"}}, "note": "Values joined by “and” are separate entries in the source; they are usually repeats but may differ in a detail not shown here. Equal values may be shown once. Toxic doses and inconclusive results are not listed. Where a SMILES comes first, the peptide text is derived from it. [ ]: non-standard residue; d: D form. The star is where a group is joined. Nle = CCCC[CH](N)C(=O)O; Cbz = O=C(OCc1ccccc1)*", "data": [{"compound": "O=CC(S)CO", "note": "(stereo not given)", "values": [{"measurement": "T/C", "setting": "dose: 12.5 mg/kg/injection, schedule: Q01DX009 (ip), vehicle: saline", "value": "107 % of control"}, {"measurement": "T/C", "setting": "dose: 25.0 mg/kg/injection, schedule: Q01DX009 (ip), vehicle: saline", "value": "111 % of control"}, {"measurement": "T/C", "setting": "dose: 50.0 mg/kg/injection, schedule: Q01DX009 (ip), vehicle: saline", "value": "123 % of control"}]}, {"compound": "O=[n+]1c2ccccc2n([O-])c2ccccc21.[Cl][Ni][Cl]", "values": [{"measurement": "T/C", "setting": "[1]", "value": "103 % of control"}, {"measurement": "T/C", "setting": "[2]", "value": "95 % of control"}, {"measurement": "T/C", "setting": "[3]", "value": "97 % of control"}, {"measurement": "T/C", "setting": "[4]", "value": "113 % of control"}, {"measurement": "T/C", "setting": "[5]", "value": "91 % of control"}]}, {"compound": "COc1ccc(O)cc1", "values": [{"measurement": "T/C", "setting": "[4]", "value": "112 % of control"}, {"measurement": "T/C", "setting": "dose: 18.0 mg/kg/injection, schedule: Q01DX009 (ip), vehicle: saline with Tween-80", "value": "98 % of control"}, {"measurement": "T/C", "setting": "[5]", "value": "101 % of control"}, {"measurement": "T/C", "setting": "dose: 30.0 mg/kg/injection, schedule: Q01DX009 (ip), vehicle: saline with Tween-80", "value": "106 % of control"}, {"measurement": "T/C", "setting": "[6]", "value": "102 % of control"}, {"measurement": "T/C", "setting": "dose: 89.0 mg/kg/injection, schedule: Q01DX009 (ip), vehicle: saline with Tween-80", "value": "106 % of control"}, {"measurement": "T/C", "setting": "[7]", "value": "104 % of control"}, {"measurement": "T/C", "setting": "dose: 189.0 mg/kg/injection, schedule: Q01DX009 (ip), vehicle: saline with Tween-80", "value": "101 % of control"}, {"measurement": "T/C", "setting": "[8]", "value": "105 % of control"}]}, {"compound": "CCCCC(NC(=O)OCc1ccccc1)C(=O)NC(C(=O)O)C(C)C", "note": "(stereo not given) (Cbz-[Nle]-Val-OH; configuration not given here)", "values": [{"measurement": "T/C", "setting": "[9]", "value": "108 % of control"}, {"measurement": "T/C", "setting": "dose: 200.0 mg/kg/injection, schedule: Q01DX009 (ip), vehicle: Klucel (hydroxypropylcellulose) (HPC)", "value": "105 % of control"}]}, {"compound": "Nc1nnc[se]1", "values": [{"measurement": "T/C", "setting": "dose: 3.0 mg/kg/injection, schedule: Q01DX009 (ip), vehicle: saline with Tween-80", "value": "98 % of control"}, {"measurement": "T/C", "setting": "[2]", "value": "101 % of control"}, {"measurement": "T/C", "setting": "[3]", "value": "101 % of control and 102 % of control"}, {"measurement": "T/C", "setting": "dose: 12.0 mg/kg/injection, schedule: Q01DX009 (ip), vehicle: saline with Tween-80", "value": "103 % of control"}, {"measurement": "T/C", "setting": "[4]", "value": "109 % of control and 102 % of control"}, {"measurement": "T/C", "setting": "[5]", "value": "108 % of control (2×) and 105 % of control"}, {"measurement": "T/C", "setting": "[6]", "value": "108 % of control and 115 % of control"}]}, {"compound": "Cc1cc2c(c3oc(C4(C)OC4C4OC4C)cc(=O)c13)C(=O)c1c(O)c(C3CC(C)(N(C)C)C(O)C(C)O3)cc(C3CC(N(C)C)C(O)C(C)O3)c1C2=O", "note": "(stereo not given)", "values": [{"measurement": "T/C", "setting": "dose: 2.0 micrograms/kg/injection, schedule: Q01DX009 (ip), vehicle: Klucel (hydroxypropylcellulose) (HPC)", "value": "123 % of control"}, {"measurement": "T/C", "setting": "dose: 4.0 micrograms/kg/injection, schedule: Q01DX009 (ip), vehicle: Klucel (hydroxypropylcellulose) (HPC)", "value": "118 % of control"}]}, {"compound": "COC(=O)[C@@]12OC[C@]34[C@H]([C@@H](O)[C@@H]1O)[C@@]1(C)CC(=O)C(OC(=O)CC(=O)OC5=C(C)[C@@H]6C[C@H]7OC(=O)[C@H](OC(=O)/C=C(\\C)C(C)C)[C@H]8[C@]9(C(=O)OC)OC[C@]78[C@H]([C@@H](O)[C@@H]9O)[C@@]6(C)CC5=O)=C(C)[C@@H]1C[C@H]3OC(=O)[C@H](OC(=O)/C=C(\\C)C(C)C)[C@@H]24", "values": [{"measurement": "T/C", "setting": "dose: 1.5 mg/kg/injection, schedule: Q01DX009 (ip), vehicle: saline + Tween-80 + alcohol", "value": "154 % of control"}]}, {"compound": "O=C(O)CCC(NC(=O)c1ccccc1)C(=O)O", "note": "(stereo not given)", "values": [{"measurement": "T/C", "setting": "[6]", "value": "93 % of control"}, {"measurement": "T/C", "setting": "[7]", "value": "106 % of control"}]}, {"compound": "COc1cccc2c1C(=O)c1c(O)c3c(c(O)c1C2=O)C[C@@](O)(c1csc(N)n1)C[C@@H]3OC1CC(N)C(O)C(C)O1", "note": "(stereo not given in full)", "values": [{"measurement": "T/C", "setting": "dose: 25.0 mg/kg/injection, schedule: Q01DX001 (ip), vehicle: water", "value": "154 % of control"}]}, {"compound": "CCCCCNc1ncnc2c(C)[nH]nc12", "values": [{"measurement": "T/C", "setting": "dose: 25.0 mg/kg/injection, schedule: Q01DX009 (ip), vehicle: Klucel (hydroxypropylcellulose) (HPC)", "value": "100 % of control"}, {"measurement": "T/C", "setting": "dose: 50.0 mg/kg/injection, schedule: Q01DX009 (ip), vehicle: Klucel (hydroxypropylcellulose) (HPC)", "value": "91 % of control"}, {"measurement": "T/C", "setting": "[9]", "value": "86 % of control"}]}, {"compound": "Oc1cc2ccccc2c(-c2c(O)c(O)cc3ccccc23)c1O", "values": [{"measurement": "T/C", "setting": "dose: 0.78 mg/kg/injection, schedule: Q01DX009 (ip), vehicle: saline with Tween-80", "value": "95 % of control"}, {"measurement": "T/C", "setting": "[1]", "value": "115 % of control"}, {"measurement": "T/C", "setting": "[2]", "value": "99 % of control"}, {"measurement": "T/C", "setting": "[3]", "value": "111 % of control and 93 % of control"}, {"measurement": "T/C", "setting": "[8]", "value": "100 % of control"}]}]}
